Laboratory results published in paper PMC12153055 (Organometallics, 2025).

How the values were obtained:
[1] = tested on: dsDNA oligomer; experiment: SPR biosensor binding to surface-anchored dsDNA oligomer; conditions: surface-blocked DNA oligomer
Procedure: The DNA binding ability of curcuminoid ligands and their complexes was evaluated by using a Surface plasmon resonance (SPR) biosensor. The monoexponential nature of binding kinetics for all the compounds is consistent with the presence of a single high-affinity site on DNA (Figure ).
The binding kinetics/affinities of the molecules of interest for DNA were studied according to a previously described biosensor-based method. Briefly, streptavidin was anchored to a carboxylate surface via EDC/NHS chemistry, and 5′-biotinylated dsDNA oligomer (sequence: 3′-[…]-5′) was coupled to surface-blocked streptavidin. Compounds were independently added to the DNA-coated surface at different concentrations, each time following binding kinetics up to equilibrium. PBS buffer was used for both the dissociation and the regeneration steps. Experimental data were fitted to both mono- and biexponential models, and the validity of each model was assessed by a standard F-test procedure. The binding sites on DNA were mapped according to independent competitive binding assays individually using a minor groove binder (GelRed) and a major groove binder (methyl green), respectively. Briefly, GelRed displacement was monitored by comparing the emission spectra of solutions containing different concentrations of curcuminoid-like ligands/complexes (0–100 μM), 20 μM DNA, and GelRed (10 μM) in 10 mM phosphate buffer, pH 7.4. Similarly, methyl green displacement assay was performed by monitoring the absorbance at 630 nm upon addition of candidate competitors (0–100 μM), 100 μM DNA, and methyl green (10 μM) in 50 mM Tris–HCl buffer and 7.5 mM MgSO4, pH 7.5.

[2] = tested on: p62; experiment: Western blot quantification of p62 in MCF7 cells; type: cell-based, human; conditions: 10 μM, 24 h
Procedure: Since no significant correlation emerged among cytotoxicity, DNA binding affinity, and proteasome inhibition, the effects of the treatment on the expression levels of p62 were evaluated. p62 is a multifunctional binding protein that is involved in signaling pathways of many cellular activities, including autophagy, whose abnormal expression is associated with malignancies, breast cancer in particular. […] This effect was more evident for the free ligand, in agreement with its higher cytotoxicity to breast cancer cells compared with that of the corresponding ruthenium complex (Figure ).
4 Representative autoradiographs (upper panel) and densitometric analyses (lower panel) of p62 levels in MCF7 cells treated with 10 μM of HZPbdcurc and [3]-Cl for 24 h (*p < 0.01 compared with the control; #p < 0.01 compared with [3]-Cl).
Semiquantitative analysis of p62 was performed by Western blotting upon individual 24 h treatments of MCF-7 cells with 10 μM of HZPbdcurc or [Ru(p-cym)(HZPbdcurc)-Cl]-Cl. Treated cells were lysed, and 15 μg of total protein was electrophoresed on 12% SDS-PAGE, then protein bands were electroblotted onto PVDF membranes (Millipore–Milan, Italy). After incubation with anti-p62 monoclonal antibody (Merck Sigma–Milan, Italy), the bands were immunodetected on a ChemiDoc MP imaging system (Bio-Rad - Milan, Italy). […] Western blot results were analyzed using Fiji software.

[3] = tested on: A2780cis cisplatin-resistant ovarian cancer cells; experiment: MTT cytotoxicity assay, A2780cis cells; type: cell-based, human; conditions: 72 h exposure, mean ± SD of three experiments
Procedure: (§1) The stability of [1]-Cl-[4]-Cl was evaluated in aqueous phosphate-buffered solution (PBS, pH 7.4) using UV–visible spectroscopy. […] The cytotoxicity of the compounds was measured according to a standard MTT assay against human breast cancer (MCF7 and MCF7CR) and ovarian cancer (A2780 and A2780cis) cell lines, and also nontumorigenic MCF10A and human embryonic kidney HEK293T cells (Table ).
(§2) All cell lines were grown in a humidified 5% CO2 environment at 37 °C in dedicated media. Growth media comprised minimum essential medium (MEM) supplemented with 10% FBS, 1% sodium pyruvate, antibiotics, and antimycotic agents for MCF7. MCF10A cells were cultured in a DMEM/F12 Ham’s mixture supplemented with 5% equine serum, 20 ng/mL EGF, 10 μg/mL insulin, […], antibiotics, and antimycotics. MCF7-CR cells were grown in minimum essential medium (MEM), 10% FBS supplemented with 0.1 mg/mL cisplatin, sodium pyruvate, antibiotics, and antimycotics. A2780 and A2780cis cells were cultured in RPMI 1640 GlutaMAX, and HEK293T cells were cultured in DMEM GlutaMAX medium containing 10% heat-inactivated FBS and antibiotics. The effect exerted on cell viability by the compounds was determined using the 3-(4,5-dimethylthiazol-2-yl)-2,5-diphenyltetrazolium bromide (MTT) assay. After individual treatments with 0–100 μM of the compound for 72 h, MTT was added to the culture media at a final concentration of 0.5 mg/mL and incubated for 2 h at 37 °C. Cisplatin was used as a positive control. The medium was replaced with 100 μL of DMSO, and after 10 min, the optical density was recorded at 550 nm on a microplate reader. At least six cultures were used for each data point. Chemicals (Merck-Sigma, Milan, Italy) and plasticware (Corning, Milan, Italy) were cell culture grade.

[4] = target: 20S proteasome trypsin-like activity (Homo sapiens, UniProt Q99436); experiment: Isolated 20S proteasome, trypsin-like activity (Z-Leu-Ser-Thr-Arg-AMC); type: biochemical; conditions: 0–100 μM, 1 h, 37 °C, pH 8.0
Procedure: (§3) Proteasome inhibition by the compounds was evaluated with respect to three major activities of the 20S proteasome, namely, chymotrypsin-like, trypsin-like, and caspase-like activities.
(§4) The effect of the compounds on the activity of the isolated 20S proteasome was tested using specific synthetic fluorogenic peptide substrates (Suc-Leu-Leu-Val-Tyr-AMC, Z-Leu-Ser-Thr-Arg-AMC, and Z-Leu-Leu-Glu-AMC for chymotrypsin-like, trypsin-like, and peptidyl glutamyl peptide hydrolase activity, respectively) as reported elsewhere. Briefly, individual mixtures consisting of the compounds (0–100 μM), 1 μg of isolated 20S proteasome, the specific substrate, and 50 mM Tris–HCl pH 8.0 up to a final volume of 100 μL were incubated at 37 °C, and after 1 h, the fluorescence measurements of the hydrolyzed AMC were recorded on a SpectraMax Gemini XPS microplate reader (λexc = 365 nm, λem = 449 nm).

[5] = target: 20S proteasome chymotrypsin-like activity (Homo sapiens, UniProt P28074); experiment: Isolated 20S proteasome, chymotrypsin-like activity (Suc-Leu-Leu-Val-Tyr-AMC); type: biochemical; conditions: 0–100 μM, 1 h, 37 °C, pH 8.0
Procedure: as §3, §4

[6] = Solubility in water (qualitative); type: physicochemical
[7] = target: 20S proteasome PGPH (caspase-like) activity (Homo sapiens, UniProt P28072); experiment: Isolated 20S proteasome, peptidyl glutamyl peptide hydrolase (caspase-like) activity (Z-Leu-Leu-Glu-AMC); type: biochemical; conditions: 0–100 μM, 1 h, 37 °C, pH 8.0
Procedure: as §3, §4

[8] = tested on: MCF10A nontumorigenic cells; experiment: MTT cytotoxicity assay, MCF10A cells; type: cell-based, human; conditions: 72 h exposure, mean ± SD of three experiments
Procedure: as §1, §2

[9] = tested on: MCF7-CR cisplatin-resistant breast cancer cells; experiment: MTT cytotoxicity assay, MCF7CR cells; type: cell-based, human; conditions: 72 h exposure, mean ± SD of three experiments
Procedure: as §1, §2

[10] = tested on: MCF7 human breast adenocarcinoma cells; experiment: MTT cytotoxicity assay, MCF7 cells; type: cell-based
Procedure: as §1, §2

[11] = tested on: HEK293T human embryonic kidney cells; experiment: MTT cytotoxicity assay, HEK293T cells; type: cell-based; conditions: 72 h exposure, mean ± SD of three experiments
Procedure: as §1, §2

[12] = tested on: A2780 human ovarian carcinoma cells; experiment: MTT cytotoxicity assay, A2780 cells; type: cell-based
Procedure: as §1, §2

[13] = MTT, 72 h exposure, mean ± SD of three experiments

- kass [1]: 10281 ± 5155 M^–1s^–1
- kdiss [1]: 0.02 ± 0.01 s^–1
- Kd ([1]; equilibrium dissociation constant): 2.2 ± 1.5 µM
- IC50 [4]: > 100 µM
- IC50 [5]: > 100 µM
- solubility in water [6]: partly soluble in H2O
- IC50 [7]: > 100 µM
SMILES: Cc1ccc(C(C)C)cc1.Oc1ccc(/C=C/c2cc(/C=C/c3ccc(O)cc3)n(-c3ccccn3)n2)cc1.[Cl-].[Cl][Ru+] [[3]Cl, [Ru(p-cym)(HZPbdcurc)Cl]Cl]
- p62 levels [2]: an increase in the levels of p62 was observed
- IC50 [3]: 2.7 ± 0.4 µM
- IC50 [8]: 15.6 ± 8.9 µM
- IC50 [9]: 31.9 ± 6 µM
- IC50 [10, 13]: 23 ± 6 µM
- SI MCF7 MCF10A ([10]; selectivity index, values equal IC50 MCF10A / IC50 MCF7): 0.68
- IC50 [11]: 19 ± 2 µM
- IC50 [12, 13]: 2 ± 0.1 µM
- SI A2780 HEK293T ([12]; selectivity index, values equal IC50 HEK293T / IC50 A2780): 9.50
